From ChEMBL document CHEMBL4177585, “Discovery of berberine based derivatives as anti-influenza agent through blocking of neuraminidase” (Bioorg Med Chem, 2017) come the findings set out here.

Chain of Neuraminidase (Influenza A virus (A/Puerto Rico/8/1934(H1N1)), UniProt P03468) (P03468 whole entry): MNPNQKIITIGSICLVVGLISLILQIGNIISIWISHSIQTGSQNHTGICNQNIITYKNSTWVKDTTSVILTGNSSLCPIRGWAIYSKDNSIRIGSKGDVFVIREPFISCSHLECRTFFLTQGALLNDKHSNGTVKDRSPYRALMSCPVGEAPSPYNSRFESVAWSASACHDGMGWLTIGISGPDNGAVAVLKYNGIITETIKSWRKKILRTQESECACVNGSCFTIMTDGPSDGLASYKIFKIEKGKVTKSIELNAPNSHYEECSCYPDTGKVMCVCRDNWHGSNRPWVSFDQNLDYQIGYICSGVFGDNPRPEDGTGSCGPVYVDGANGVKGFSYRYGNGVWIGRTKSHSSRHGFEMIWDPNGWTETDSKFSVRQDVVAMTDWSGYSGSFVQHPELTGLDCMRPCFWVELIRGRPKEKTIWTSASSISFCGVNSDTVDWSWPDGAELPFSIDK

The first data set has as its system Influenza A virus. The experiment in a line: Antiviral activity against Influenza A virus (A/Puerto Rico/8/1934(H1N1)) infected in MDCK cells assessed as reduction in virus-induced cytopathogenicity incubated for 48 hrs by SRB assay. It counts as functional, organism-based.
Settings: not given
`COc1cc(CN2CCN(C(c3ccccc3)c3ccccc3)CC2)c2cc3[n+](cc2c1O)CCc1cc2c(cc1-3)OCO2.[Cl-]`: the IC50 was 3.14 µg/mL.
Regarding `COc1cc(CN2CCN(c3cccc(Cl)c3)CC2)c2cc3[n+](cc2c1O)CCc1cc2c(cc1-3)OCO2.[Cl-]`, the IC50 came out at 29.6 µg/mL.
With `COc1cc(CN2CCN(c3ccc(Cl)cc3)CC2)c2cc3[n+](cc2c1O)CCc1cc2c(cc1-3)OCO2.[Cl-]`, the IC50 came out at 45.3 µg/mL.
The same measure, in the same setting: the value for `COc1cc(CN2CCN(c3ccc(C)cc3C)CC2)c2cc3[n+](cc2c1O)CCc1cc2c(cc1-3)OCO2.[Cl-]` was 60.1 µg/mL; that for `COc1cc(Cn2c3ccccc3c3ccccc32)c2cc3[n+](cc2c1O)CCc1cc2c(cc1-3)OCO2.[Cl-]` was 9.79 µg/mL; that for `COc1cc(CN2CCN(c3ccc4ccccc4c3)CC2)c2cc3[n+](cc2c1O)CCc1cc2c(cc1-3)OCO2.[Cl-]` was 20 µg/mL.
For the compound `COc1cc(CN2CCN(c3ncccn3)CC2)c2cc3[n+](cc2c1O)CCc1cc2c(cc1-3)OCO2.[Cl-]`, the IC50 is 2.65 µg/mL.
Still for that read-out and setting: the value for `COc1cc(CN2CCN(c3ccccc3F)CC2)c2cc3[n+](cc2c1O)CCc1cc2c(cc1-3)OCO2.[Cl-]` was 9.16 µg/mL.
With `COc1cc(CN2CCN(c3ccc(F)cc3F)CC2)c2cc3[n+](cc2c1O)CCc1cc2c(cc1-3)OCO2.[Cl-]`, the IC50 was 9.92 µg/mL.
In the case of `COc1cc(CN2CCN(c3cccc(Cl)c3Cl)CC2)c2cc3[n+](cc2c1O)CCc1cc2c(cc1-3)OCO2.[Cl-]`, the IC50 stood at 8.37 µg/mL.
Same read-out and setting: the value for `COc1cc(CN2CCN(c3ccccc3[N+](=O)[O-])CC2)c2cc3[n+](cc2c1O)CCc1cc2c(cc1-3)OCO2.[Cl-]` was more than 50 µg/mL.
Still for that read-out and setting: the value for `COc1cc(CN2CCN(c3ccc(OC(F)(F)F)cc3)CC2)c2cc3[n+](cc2c1O)CCc1cc2c(cc1-3)OCO2.[Cl-]` was 8.45 µg/mL.

Tested on in the next data set: not listed separately
The experiment in a line: Cytotoxicity against MDCK cells incubated for 48 hrs assessed as reduction in cell viability by SRB assay. It counts as cell-based, Canis lupus familiaris. As to conditions: dog.
For `COc1cc(CN2CCN(c3ccc(Cl)cc3)CC2)c2cc3[n+](cc2c1O)CCc1cc2c(cc1-3)OCO2.[Cl-]`, the CC50 at 48 h came out at 480 µg/mL.
Same read-out and setting: under `COc1cc(CN2CCN(c3ccc(C)cc3C)CC2)c2cc3[n+](cc2c1O)CCc1cc2c(cc1-3)OCO2.[Cl-]` stands 134 µg/mL; under `COc1cc(Cn2c3ccccc3c3ccccc32)c2cc3[n+](cc2c1O)CCc1cc2c(cc1-3)OCO2.[Cl-]`, 62.6 µg/mL.
Still for that read-out and setting: under `COc1cc(CN2CCN(c3ccc4ccccc4c3)CC2)c2cc3[n+](cc2c1O)CCc1cc2c(cc1-3)OCO2.[Cl-]` stands 150 µg/mL.
Still for that read-out and setting: the value for `COc1cc(CN2CCN(c3ncccn3)CC2)c2cc3[n+](cc2c1O)CCc1cc2c(cc1-3)OCO2.[Cl-]` was 223 µg/mL.
In the case of `COc1cc(CN2CCN(c3ccccc3F)CC2)c2cc3[n+](cc2c1O)CCc1cc2c(cc1-3)OCO2.[Cl-]`, the CC50 at 48 h was 68.8 µg/mL.
Still for that read-out and setting: under `COc1cc(CN2CCN(c3ccc(F)cc3F)CC2)c2cc3[n+](cc2c1O)CCc1cc2c(cc1-3)OCO2.[Cl-]` stands 73.9 µg/mL.
Still for that read-out and setting: the value for `COc1cc(CN2CCN(c3cccc(Cl)c3Cl)CC2)c2cc3[n+](cc2c1O)CCc1cc2c(cc1-3)OCO2.[Cl-]` was 63.2 µg/mL; that for `COc1cc(CN2CCN(c3ccccc3[N+](=O)[O-])CC2)c2cc3[n+](cc2c1O)CCc1cc2c(cc1-3)OCO2.[Cl-]` was 230 µg/mL.
On the same count and under the same terms, under `COc1cc(CN2CCN(c3ccc(OC(F)(F)F)cc3)CC2)c2cc3[n+](cc2c1O)CCc1cc2c(cc1-3)OCO2.[Cl-]` stands 312 µg/mL.

The next data set addresses Neuraminidase (Influenza A virus (A/Puerto Rico/8/1934(H1N1)), UniProt P03468). The experiment in a line: Inhibition of neuraminidase in influenza A virus (A/Puerto Rico/8/1934(H1N1)) pre-incubated for 30 mins before NA-Star substrate addition for 30 mins by luminescence based assay.
Settings: not given
For the compound `COc1cc(CN2CCN(C(c3ccccc3)c3ccccc3)CC2)c2cc3[n+](cc2c1O)CCc1cc2c(cc1-3)OCO2.[Cl-]`, the Ki came to 490 nM.
Same read-out and setting: under `COc1cc(CN2CCN(c3cccc(Cl)c3)CC2)c2cc3[n+](cc2c1O)CCc1cc2c(cc1-3)OCO2.[Cl-]` stands 250 nM.
Still for that read-out and setting: under `COc1cc(CN2CCN(c3ccc(Cl)cc3)CC2)c2cc3[n+](cc2c1O)CCc1cc2c(cc1-3)OCO2.[Cl-]` stands 960 nM; under `COc1cc(CN2CCN(c3ccc(C)cc3C)CC2)c2cc3[n+](cc2c1O)CCc1cc2c(cc1-3)OCO2.[Cl-]`, 420 nM.
Same read-out and setting: under `COc1cc(Cn2c3ccccc3c3ccccc32)c2cc3[n+](cc2c1O)CCc1cc2c(cc1-3)OCO2.[Cl-]` stands 490 nM; under `COc1cc(CN2CCN(c3ccc4ccccc4c3)CC2)c2cc3[n+](cc2c1O)CCc1cc2c(cc1-3)OCO2.[Cl-]`, 240 nM.
Take `COc1cc(CN2CCN(c3ncccn3)CC2)c2cc3[n+](cc2c1O)CCc1cc2c(cc1-3)OCO2.[Cl-]`: affinity was put at a Ki of 70 nM.
The same measure, in the same setting: under `COc1cc(CN2CCN(c3ccccc3F)CC2)c2cc3[n+](cc2c1O)CCc1cc2c(cc1-3)OCO2.[Cl-]` stands 5200 nM; under `COc1cc(CN2CCN(c3ccc(F)cc3F)CC2)c2cc3[n+](cc2c1O)CCc1cc2c(cc1-3)OCO2.[Cl-]`, 410 nM; under `COc1cc(CN2CCN(c3cccc(Cl)c3Cl)CC2)c2cc3[n+](cc2c1O)CCc1cc2c(cc1-3)OCO2.[Cl-]`, 350 nM.
Turning to `COc1cc(CN2CCN(c3ccccc3[N+](=O)[O-])CC2)c2cc3[n+](cc2c1O)CCc1cc2c(cc1-3)OCO2.[Cl-]`, the Ki amounted to 1340 nM.
Still for that read-out and setting: the value for `COc1cc(CN2CCN(c3ccc(OC(F)(F)F)cc3)CC2)c2cc3[n+](cc2c1O)CCc1cc2c(cc1-3)OCO2.[Cl-]` was 490 nM.
